Experimental data published in paper PMC9667777, “A fragment-based approach leading to the discovery of inhibitors of CK2α with a novel mechanism of action” (RSC Medicinal Chemistry, 2022).
Where “and” joins values, the source holds several entries; their conditions need not be identical. Equal values may be shown once. Read-outs that look alike come from different tables or passages of the source.

Legend:
HCT116 cells [1] = conditions: read-out: GI50 HCT116; 72 hours; mean ± SEM from three experiments run in triplicate
HCT116 cells [2] = assay: cells; conditions: Homo sapiens, HCT-116, 72 h, read-out: GI50 HCT116, 72 hours; mean ± SEM from three experiments run in triplicate
CK2α [3] = target: T1, CK2α (Homo sapiens, UniProt P68400); assay: biochemical; conditions: for inhibition at 500 µM: read-out: % inhibition at 500 μM; for inhibition at 1000 µM: read-out: % inhibition at 1 mM; for inhibition at 50 µM: read-out: % inhibition at 50 μM
T1 sequence (P68400 whole entry): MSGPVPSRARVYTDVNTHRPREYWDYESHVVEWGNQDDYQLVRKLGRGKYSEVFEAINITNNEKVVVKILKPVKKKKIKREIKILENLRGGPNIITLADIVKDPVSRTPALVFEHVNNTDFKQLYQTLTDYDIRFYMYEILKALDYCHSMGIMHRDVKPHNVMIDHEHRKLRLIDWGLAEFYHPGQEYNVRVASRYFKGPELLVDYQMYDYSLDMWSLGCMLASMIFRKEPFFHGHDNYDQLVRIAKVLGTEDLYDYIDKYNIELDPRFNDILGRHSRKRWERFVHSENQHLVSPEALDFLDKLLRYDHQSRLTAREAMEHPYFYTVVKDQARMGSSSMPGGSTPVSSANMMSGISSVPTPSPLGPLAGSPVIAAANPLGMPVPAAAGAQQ

CK2α [4] = target: T1, CK2α
CK2α [5] = target: T1, CK2α; remark: listed apart in the source
A549 cells = assay: cells; conditions: Homo sapiens, 72 h, read-out: GI50 A459
[6] = test system: CK2α-dependent phosphorylation of AKT1 Ser129 and CDC37 Ser13; conditions: HCT116 cells
Jurkat cells = assay: cells; conditions: Homo sapiens, 72 h, read-out: GI50 Jurkat

SMILES | Ligand efficiency (CK2α [4]) | inhibition at 50 µM (CK2α [3]) [%] | further results
O=C(O)c1ccc2c(c1)nc(Nc1cccc(Cl)c1)c1ccncc12 [CX4945, reference compound] |  |  | GI50 (HCT116 cells [1]): 4 µM; GI50 (HCT116 cells [2]): 4.8 µM
Brc1ccc2[nH]ccc2c1 [Compound 3] |  |  | inhibition at 500 µM (CK2α [3]): 22 ± 5%; inhibition at 1000 µM (CK2α [3]): 50 ± 13%
Clc1cc2[nH]ccc2cc1Br [Compound 6] | 0.44 and 0.44 kJ mol^−1 |  | inhibition at 500 µM (CK2α [3]): 93 ± 5%
Brc1ccc2[nH]ncc2c1 [Compound 7] | 0.47 and 0.47 kJ mol^−1 |  | inhibition at 500 µM (CK2α [3]): 66 ± 5%; inhibition at 1000 µM (CK2α [3]): 84 ± 6%
N#CCc1c[nH]c2ccc(Br)cc12 [Compound 8] | 0.44 and 0.44 kcal mol-1 and 0.44 kJ mol^−1 | 32 ± 7 | inhibition at 500 µM (CK2α [3]): 87 ± 11%; inhibition at 1000 µM (CK2α [3]): 105 ± 9%; binding to CK2α by CPMG signal (CK2α [5]; 500 μM compound + 7 μM CK2α): binds to CK2α; binding to CK2α in the presence of CX4945 (CK2α [5]; 500 μM compound + 50 μM CX4945 + 7 μM CK2α): significantly reduced; binding to CK2α in the presence of αD-binder (CK2α [5]; 500 μM compound + 500 μM αD-binder + 7 μM CK2α): largely inhibited; GI50 (A549 cells): 29 ± 7 µM; inhibition of CK2α-dependent phosphorylation of Ser129 in AKT1 ([6]; twice the GI50 (170 μM), 24, 48 or 72 hours): good inhibition; inhibition of phosphorylation of Ser13 in CDC37 ([6]; twice the GI50 (170 μM), 48 h): significantly inhibited; GI50 (Jurkat cells): 55 ± 2 µM; GI50 (HCT116 cells [2]): 88 ± 7 µM
N#CCc1c[nH]c2cc(Cl)c(Br)cc12 [Compound 9] |  | 103 ± 6 | 
N#CCc1n[nH]c2ccc(Br)cc12 [Compound 10] |  | 97 ± 3 | 
N#CCc1c[nH]c2ccc(C(F)(F)F)cc12 [Compound 14] |  | 39 ± 10 | 
N#CCc1c[nH]c2cc(Br)c(Br)cc12 [Compound 15] |  | 65 ± 10 | 
N#CCc1n[nH]c2cc(Br)c(Br)cc12 [Compound 16] | 0.53 kcal/mol | 95 ± 4 | 
N#CCc1n[nH]c2cc(Cl)c(Br)cc12 [Compound 17] | 0.52 kcal/mol | 98 ± 3 | 
Brc1ccc2[nH]cc(Cc3nccs3)c2c1 [Compound 18] |  | 13 ± 4 | 
Brc1ccc2[nH]cc(Cc3ccc[nH]3)c2c1 [Compound 20] |  | 8 ± 3 | 
CCCc1cn(Cc2c[nH]c3ccc(Br)cc23)nn1 [Compound 21] |  | 11 ± 6 | 
CNCc1c[nH]c2ccc(Br)cc12 [Compound 22] |  | 21 ± 5 | 
N=C(Cc1c[nH]c2ccc(Br)cc12)NO [Compound 23] |  | 13 ± 5 | 
